Results: US6875760B2 (Novo Nordisk A/S, priority 1999, dated 2005)

Molecular target: T1, human glucagon receptor (Homo sapiens, UniProt P47871)
T1 construct: expressed in transfected cells; host or cells: BHK (baby hamster kidney) cells
Assay: Glucagon Binding Assay (III)
Conditions: BHK cell membranes, WGA SPA beads, 125I-glucagon; read-out: Glu Bd Assay (III) IC50
Method in brief: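 Membranes from BHK cells transfected with the human receptor, prepared at 4 °C, were used in a WGA-bead scintillation proximity binding format. Plates were shaken for 4 hours, left to settle 8–48 hours and then counted. Non-specific binding was defined with 500 nM glucagon.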

T1 sequence (P47871 26-477): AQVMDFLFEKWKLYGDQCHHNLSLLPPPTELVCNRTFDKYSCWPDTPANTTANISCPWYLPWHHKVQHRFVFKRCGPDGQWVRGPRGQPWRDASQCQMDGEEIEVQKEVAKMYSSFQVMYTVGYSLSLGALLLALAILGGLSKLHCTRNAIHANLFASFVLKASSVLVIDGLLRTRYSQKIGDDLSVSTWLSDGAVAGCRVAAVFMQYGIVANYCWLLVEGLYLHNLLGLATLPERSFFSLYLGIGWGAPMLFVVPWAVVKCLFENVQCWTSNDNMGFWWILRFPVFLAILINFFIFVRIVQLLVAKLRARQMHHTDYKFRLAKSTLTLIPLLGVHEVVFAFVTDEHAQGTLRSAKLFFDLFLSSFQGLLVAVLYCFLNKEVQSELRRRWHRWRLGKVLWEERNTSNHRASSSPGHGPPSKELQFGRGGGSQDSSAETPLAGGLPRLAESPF

Row | SMILES | IC50
1 | CS(=O)(=O)c1ccc(C(=O)N(Cc2ccc(C(=O)Nc3nn[nH]n3)cc2)c2ccc(C3CCCCC3)cc2)cc1 [Example 483, 4-{[(4-Cyclohexylphenyl)-(4-methylsulfonylbenzoyl)amino]methyl}-N-(2H-tetrazol-5-yl)benzamide] | 1.12 µM
2 | O=C(Nc1nn[nH]n1)c1ccc(CN(C(=O)c2ccc(C3CCCCC3)cc2)c2ccc(C3CCCCC3)cc2)cc1 [Example 484, 4-{[(4-Cyclohexylphenyl)-(4-cyclohexylbenzoyl)amino]methyl}-N-(2H-tetrazol-5-yl)benzamide] | 0.505 µM
3 | O=C(Nc1nn[nH]n1)c1ccc(CN(C(=O)c2ccc(OC(F)(F)F)cc2)c2ccc(C3CCCCC3)cc2)cc1 [Example 485, 4-{[(4-Cyclohexylphenyl)-(4-triflourmethoxybenzoyl)amino]methyl}-N-(2H-tetrazol-5-yl)benzamide] | 0.81 µM
4 | CC(C)(C)C1CCC(N(Cc2ccc(C(=O)Nc3nn[nH]n3)cc2)C(=O)c2ccc(-c3ccccc3)cc2)CC1 (stereo not shown) [Example 487, Biphenyl-4-carboxylic acid (4-tert-butylcyclohexyl)-[4-(2H-tetrazol-5-ylcarbamoyl)benzyl]amide] | 0.523 µM
5 | CC(C)(C)C1CCC(N(Cc2ccc(C(=O)Nc3nn[nH]n3)cc2)C(=O)c2ccc(C3CCCCC3)cc2)CC1 (stereo not shown) [Example 488, 4-{[(4-tert-Butylcyclohexyl)-(4-cyclohexylbenzoyl)amino]methyl}-N-(2H-tetrazol-5-yl)benzamide] | 0.098 µM
6 | CC(C)(C)C1CCC(N(Cc2ccc(C(=O)Nc3nn[nH]n3)cc2)C(=O)c2ccc(OC(F)(F)F)cc2)CC1 (stereo not shown) [Example 489, 4-{[(4-tert-Butylcyclohexyl)-(4-triflourmethoxybenzoyl)amino]methyl}-N-(2H-tetrazol-5-yl)benzamide] | 0.15 µM
7 | CC(C)(C)C1CCC(N(Cc2ccc(C(=O)Nc3nn[nH]n3)cc2)C(=O)c2cc3cc(Cl)ccc3o2)CC1 (stereo not shown) [Example 490, 5-Chlorobenzofuran-2-carboxylic acid (4-tert-butylcyclohexyl)-[4-(2H-tetrazol-5-ylcarbamoyl)benzyl]amide] | 0.136 µM
8 | CC(Oc1ccc(Cl)cc1)C(=O)N(Cc1ccc(C(=O)Nc2nn[nH]n2)cc1)c1ccc(C2CCCCC2)cc1 (stereo not shown) [Example 491, 4-{[[2-(4-Chlorophenoxy)propionyl]-(4-cyclohexylphenyl)amino]methyl}-N-(2H-tetrazol-5-yl)benzamide] | 0.264 µM
9 | O=C(Nc1nn[nH]n1)c1ccc(CN(C(=O)Cc2cccc(OC(F)(F)F)c2)c2ccc(C3CCCCC3)cc2)cc1 [Example 492, 4-({(4-Cyclohexylphenyl)-[2-(3-trifluoromethoxyphenyl)acetyl]amino}methyl)-N-(2H-tetrazol-5-yl)benzamide] | 0.144 µM
10 | CC(Oc1ccc(OC(F)(F)F)cc1)C(=O)N(Cc1ccc(C(=O)Nc2nn[nH]n2)cc1)c1ccc(C2CCCCC2)cc1 (stereo not shown) [Example 493] | 0.88 µM
11 | O=C(Nc1nn[nH]n1)c1ccc(CN(C(=O)c2cccc(Cl)c2)c2ccc(C3=CCCCC3)cc2)cc1 [Example 495, 4-({(4-Cyclohex-1-enylphenyl)-(3-chlorobenzoyl)amino}methyl)-N-(2H-tetrazol-5-yl)benzamide] | 0.306 µM
12 | O=C(Nc1nn[nH]n1)c1ccc(CN(C(=O)Cc2ccc(F)cc2F)c2ccc(C3CCCCC3)cc2)cc1 [Example 496, 4-({(4-Cyclohexylphenyl)-[2-(2,4-difluorophenyl)acetyl]amino}methyl)-N-(2H-tetrazol-5-yl)benzamide] | 0.566 µM
13 | O=C(Nc1nn[nH]n1)c1ccc(CN(C(=O)Cc2ccc(-c3ccccc3)cc2)c2ccc(C3CCCCC3)cc2)cc1 [Example 497, 4-{[(2-Biphenyl-4-yl-acetyl)-(4-cyclohexylphenyl)amino]methyl}-N-(2H-tetrazol-5-yl)benzamide] | 0.589 µM
14 | CC(Oc1cccc(Cl)c1)C(=O)N(Cc1ccc(C(=O)Nc2nn[nH]n2)cc1)c1ccc(C2CCCCC2)cc1 (stereo not shown) [Example 498, 4-{[[2-(3-Chlorophenoxy)propionyl]-(4-cyclohexylphenyl)amino]methyl}-N-(2H-tetrazol-5-yl)benzamide] | 0.621 µM
15 | O=C(Nc1nn[nH]n1)c1ccc(CN(C(=O)Cc2ccc3ccccc3c2)c2ccc(C3CCCCC3)cc2)cc1 [Example 499, 4-{[(4-Cyclohexylphenyl)-(2-naphth-2-ylacetyl)amino]methyl}-N-(2H-tetrazol-5-yl)benzamide] | 0.136 µM
16 | O=C(Nc1nn[nH]n1)c1ccc(CN(C(=O)/C=C/c2ccccc2Cl)c2ccc(C3CCCCC3)cc2)cc1 [Example 500, 4-{[[3-(2-Chlorophenyl)acryloyl]-(4-cyclohexylphenyl)amino]methyl}-N-(2H-tetrazol-5-yl)benzamide] | 0.14 µM
17 | O=C(Nc1nn[nH]n1)c1ccc(CN(C(=O)/C=C/c2ccccc2Br)c2ccc(C3CCCCC3)cc2)cc1 [Example 501, 4-{[[3-(2-Bromophenyl)acryloyl]-(4-cyclohexylphenyl)amino]methyl}-N-(2H-tetrazol-5-yl)benzamide] | 0.217 µM
18 | CC(C)(C)C1CCC(N(Cc2ccc(C(=O)Nc3nn[nH]n3)cc2)C(=O)Cc2ccc(OC(F)(F)F)cc2)CC1 (stereo not shown) [Example 502, 4-({(4-tert-Butylcyclohexyl)-[2-(4-trifluoromethoxyphenyl)acetyl]amino}methyl)-N-(2H-tetrazol-5-yl)benzamide] | 0.028 µM
19 | CC(C)(C)C1CCC(N(Cc2ccc(C(=O)Nc3nn[nH]n3)cc2)C(=O)/C=C/c2c(Cl)cccc2Cl)CC1 (stereo not shown) [Example 503, 4-({(4-tert-Butylcyclohexyl)-[3-(2,6-dichlorophenyl)acryloyl]amino}methyl)-N-(2H-tetrazol-5-yl)benzamide] | 0.094 µM
20 | O=C(O)CCNC(=O)c1ccc(CN(CC(c2ccccc2)c2ccccc2)C(=O)Cc2ccc(OC(F)(F)F)cc2)cc1 [Example 504, 3-[4-({(2,2-Diphenylethyl)-[2-(4-trifluoromethoxyphenyl)acetyl]amino}methyl)benzoylamino]propionic acid] | 0.235 µM
21 | O=C(O)CCNC(=O)c1ccc(CN(CC(c2ccccc2)c2ccccc2)C(=O)/C=C/c2c(Cl)cccc2Cl)cc1 [Example 505, 3-(4-{[[3-(2,6-Dichlorophenyl)acryloyl]-(2,2-diphenylethyl)amino]methyl}benzoylamino)propionic acid] | 0.449 µM
22 | CC(C)(C)C1CCC(N(Cc2ccc(C(=O)NCCC(=O)O)cc2)C(=O)Cc2ccc(OC(F)(F)F)cc2)CC1 (stereo not shown) [Example 506, 3-[4-({(4-tert-Butylcyclohexyl)-[2-(4-trifluoromethoxyphenyl)acetyl]amino}methyl)benzoylamino]propionic acid] | 0.108 µM
23 | CC(C)Cc1ccc(C(=O)N(Cc2ccc(C(=O)Nc3nn[nH]n3)cc2)c2ccc(C3CCCCC3)cc2)cc1 [Example 507, 4-{[(4-Cyclohexylphenyl)-(4-isobutylbenzoyl)amino]methyl}-N-(2H-tetrazol-5-yl)benzamide] | 0.444 µM
24 | O=C(Nc1nn[nH]n1)c1ccc(CN(C(=O)c2ccc(Cc3ccccc3)cc2)c2ccc(C3CCCCC3)cc2)cc1 [Example 508, 4-{[(4-Cyclohexylphenyl)-(4-benzylbenzoyl)amino]methyl}-N-(2H-tetrazol-5-yl)benzamide] | 0.198 µM
25 | O=C(Nc1nn[nH]n1)c1ccc(CN(C(=O)c2cccc(C(F)(F)F)c2)c2ccc(C3CCCCC3)cc2)cc1 [Example 510, 4-{[(4-Cyclohexylphenyl)-(3-trifluoromethylbenzoyl)amino]methyl}-N-(2H-tetrazol-5-yl)benzamide] | 1.1 µM
